Experimental data taken from patent US10961401B2, “UV cured benzophenone terminated quaternary ammonium antimicrobials for surfaces” (NANO SAFE COATINGS INCORPORATED, priority 2012, dated 2021).
Counter-ions that a name gives are not always drawn.

Key:
Pseudomonas spp. CTO7 = assay: Flow-cell antimicrobial test: bacterial cell count in effluent of coated silicone tubing; type: cell-based; details: 100 μL effluent plated on 10% TSA
Experimental: Preparation of Self Assembled Monolayers on Silicone Tubing
Silicone tubing was rinsed with IPA and H2O using a peristaltic pump then dried by running air through the tubes. A 0.05% (w/v) solution of 8a in H2O and a 0.5% (w/v) solution of 4c in H2O/IPA were prepared. Tubes were coated using the peristaltic pump and filled tubes were irradiated using a UV fumehood for 25 minutes. Coated tubes were then rinsed with H2O to remove any unbound materials.
1.5% (w/v) solutions of 8a and 4c in dichloromethane (DCM) were prepared. These solutions were pumped through clean silicone tubing using a syringe and irradiated using a UV quartz lamp for 30 minutes.
Antimicrobial Test Method
The antimicrobial efficacy was determined using a flow-cell method as described in Markison C and Swan J, “The Effect of Humidity on the Survival of MRSA on Hard Surfaces”, Indoor and Built Environment, 2006, 15(1), 85-91. A 1% tryptic soy broth and an inoculum of 10×10^4 cfu/mL of Pseudomonas spp. CTO7 were pumped through silicone tubing coated with 8a, 4c and a control tube for 30 hours. The tubes were then left stagnant for a period of 2 hours after which only the 1% TSB was allowed to flow through the tubes for 48 hours. During these 48 hours effluent samples of 100 μL were collected periodically and plated on 10% trypticase soy agar (TSA) in a dilution series up to 10×10^4. Sampling periods were time zero, 3 hours, 6 hours, 24 hours, 27 hours, 30 hours, and 48 hours. The number of colonies grown on each plate was counted in order to determine antimicrobial activity.

[1] = time 0 hr, sample dilution 10^0
[2] = time 0 hr, sample dilution 10^−1
[3] = time 0 hr, sample dilution 10^−2
[4] = time 0 hr, sample dilution 10^−3
[5] = time 0 hr, sample dilution 10^−4
[6] = time 3 hr, sample dilution 10^0
[7] = time 3 hr, sample dilution 10^−1
[8] = time 3 hr, sample dilution 10^−2
[9] = time 3 hr, sample dilution 10^−3
[10] = time 3 hr, sample dilution 10^−4
[11] = time 6 hr, sample dilution 10^0
[12] = time 6 hr, sample dilution 10^−1
[13] = time 6 hr, sample dilution 10^−2
[14] = time 6 hr, sample dilution 10^−3
[15] = time 6 hr, sample dilution 10^−4
[16] = time 24 hr, sample dilution 10^0
[17] = time 24 hr, sample dilution 10^−1
[18] = time 24 hr, sample dilution 10^−2
[19] = time 24 hr, sample dilution 10^−3
[20] = time 24 hr, sample dilution 10^−4
[21] = time 27 hr, sample dilution 10^0
[22] = time 27 hr, sample dilution 10^−1
[23] = time 27 hr, sample dilution 10^−2
[24] = time 27 hr, sample dilution 10^−3
[25] = time 27 hr, sample dilution 10^−4
[26] = time 30 hr, sample dilution 10^0
[27] = time 30 hr, sample dilution 10^−1
[28] = time 30 hr, sample dilution 10^−2
[29] = time 30 hr, sample dilution 10^−3
[30] = time 30 hr, sample dilution 10^−4
[31] = time 48 hr, sample dilution 10^0
[32] = time 48 hr, sample dilution 10^−1
[33] = time 48 hr, sample dilution 10^−2
[34] = time 48 hr, sample dilution 10^−3
[35] = time 48 hr, sample dilution 10^−4

| SMILES | Pseudomonas bacterial cell count on coated silicone tubing (Pseudomonas spp. CTO7; [1]) | Pseudomonas bacterial cell count on coated silicone tubing (Pseudomonas spp. CTO7; [2]) | Pseudomonas bacterial cell count on coated silicone tubing (Pseudomonas spp. CTO7; [3]) | Pseudomonas bacterial cell count on coated silicone tubing (Pseudomonas spp. CTO7; [4]) | Pseudomonas bacterial cell count on coated silicone tubing (Pseudomonas spp. CTO7; [5]) | Pseudomonas bacterial cell count on coated silicone tubing (Pseudomonas spp. CTO7; [6]) | Pseudomonas bacterial cell count on coated silicone tubing (Pseudomonas spp. CTO7; [7]) | Pseudomonas bacterial cell count on coated silicone tubing (Pseudomonas spp. CTO7; [8]) | Pseudomonas bacterial cell count on coated silicone tubing (Pseudomonas spp. CTO7; [9]) | Pseudomonas bacterial cell count on coated silicone tubing (Pseudomonas spp. CTO7; [10]) | Pseudomonas bacterial cell count on coated silicone tubing (Pseudomonas spp. CTO7; [11]) | Pseudomonas bacterial cell count on coated silicone tubing (Pseudomonas spp. CTO7; [12]) | Pseudomonas bacterial cell count on coated silicone tubing (Pseudomonas spp. CTO7; [13]) | Pseudomonas bacterial cell count on coated silicone tubing (Pseudomonas spp. CTO7; [14]) | Pseudomonas bacterial cell count on coated silicone tubing (Pseudomonas spp. CTO7; [15]) | Pseudomonas bacterial cell count on coated silicone tubing (Pseudomonas spp. CTO7; [16]) | Pseudomonas bacterial cell count on coated silicone tubing (Pseudomonas spp. CTO7; [17]) | Pseudomonas bacterial cell count on coated silicone tubing (Pseudomonas spp. CTO7; [18]) | Pseudomonas bacterial cell count on coated silicone tubing (Pseudomonas spp. CTO7; [19]) | Pseudomonas bacterial cell count on coated silicone tubing (Pseudomonas spp. CTO7; [20]) | also measured |
| --- | --- | --- | --- | --- | --- | --- | --- | --- | --- | --- | --- | --- | --- | --- | --- | --- | --- | --- | --- | --- | --- |
| CN(C)c1cccc2c(S(=O)(=O)NCCC[N+](C)(C)CCCCOc3ccc(C(=O)c4ccccc4)cc3)cccc12 (as salt: bromide) [Compound 8a, 4-(4-benzoylphenoxy)-N-(3-(5-(dimethylamino)naphthalene-1-sulfonamido)propyl)-N,N-dimethylbutan-1-ammonium bromide] | – | – | – | – | – | – | – | – | – | – | – | – | – | – | – | – | – | – | – | – | melting point: 96 to 104 °C |
| CCCCCCCCCCCCCCCCCC[N+](C)(C)CCCOc1ccc(C(=O)c2ccccc2)cc1 [Compound 4c] | 300 cfu/mL | 300 cfu/mL | 48 cfu/mL | 8 cfu/mL | 0 cfu/mL | 20 cfu/mL | 0 cfu/mL | 0 cfu/mL | 0 cfu/mL | 0 cfu/mL | 160 cfu/mL | 15 cfu/mL | 0 cfu/mL | 0 cfu/mL | 0 cfu/mL | 300 cfu/mL | 200 cfu/mL | 21 cfu/mL | 4 cfu/mL | 0 cfu/mL | Pseudomonas bacterial cell count on coated silicone tubing (Pseudomonas spp. CTO7; [21]): 300 cfu/mL; Pseudomonas bacterial cell count on coated silicone tubing (Pseudomonas spp. CTO7; [22]): 110 cfu/mL; Pseudomonas bacterial cell count on coated silicone tubing (Pseudomonas spp. CTO7; [23]): 11 cfu/mL; Pseudomonas bacterial cell count on coated silicone tubing (Pseudomonas spp. CTO7; [24]): 0 cfu/mL; Pseudomonas bacterial cell count on coated silicone tubing (Pseudomonas spp. CTO7; [25]): 0 cfu/mL; Pseudomonas bacterial cell count on coated silicone tubing (Pseudomonas spp. CTO7; [26]): 300 cfu/mL; Pseudomonas bacterial cell count on coated silicone tubing (Pseudomonas spp. CTO7; [27]): 70 cfu/mL; Pseudomonas bacterial cell count on coated silicone tubing (Pseudomonas spp. CTO7; [28]): 5 cfu/mL; Pseudomonas bacterial cell count on coated silicone tubing (Pseudomonas spp. CTO7; [29]): 0 cfu/mL; Pseudomonas bacterial cell count on coated silicone tubing (Pseudomonas spp. CTO7; [30]): 0 cfu/mL; Pseudomonas bacterial cell count on coated silicone tubing (Pseudomonas spp. CTO7; [31]): 289 cfu/mL; Pseudomonas bacterial cell count on coated silicone tubing (Pseudomonas spp. CTO7; [32]): 31 cfu/mL; Pseudomonas bacterial cell count on coated silicone tubing (Pseudomonas spp. CTO7; [33]): 0 cfu/mL; Pseudomonas bacterial cell count on coated silicone tubing (Pseudomonas spp. CTO7; [34]): 0 cfu/mL; Pseudomonas bacterial cell count on coated silicone tubing (Pseudomonas spp. CTO7; [35]): 0 cfu/mL |
| CN(C)c1cccc2c(S(=O)(=O)NCCC[N+](C)(C)CCCCOc3ccc(C(=O)c4ccccc4)cc3)cccc12 [Compound 8a, 4-(4-benzoylphenoxy)-N-(3-(5-(dimethylamino)naphthalene-1-sulfonamido)propyl)-N,N-dimethylbutan-1-ammonium bromide] | 0 cfu/mL | 0 cfu/mL | 0 cfu/mL | 0 cfu/mL | 0 cfu/mL | 15 cfu/mL | 0 cfu/mL | 0 cfu/mL | 0 cfu/mL | 0 cfu/mL | 6 cfu/mL | 0 cfu/mL | 0 cfu/mL | 0 cfu/mL | 0 cfu/mL | 0 cfu/mL | 0 cfu/mL | 0 cfu/mL | 0 cfu/mL | 0 cfu/mL | Pseudomonas bacterial cell count on coated silicone tubing (Pseudomonas spp. CTO7; [21]): 30 cfu/mL; Pseudomonas bacterial cell count on coated silicone tubing (Pseudomonas spp. CTO7; [22]): 0 cfu/mL; Pseudomonas bacterial cell count on coated silicone tubing (Pseudomonas spp. CTO7; [23]): 0 cfu/mL; Pseudomonas bacterial cell count on coated silicone tubing (Pseudomonas spp. CTO7; [24]): 0 cfu/mL; Pseudomonas bacterial cell count on coated silicone tubing (Pseudomonas spp. CTO7; [25]): 0 cfu/mL; Pseudomonas bacterial cell count on coated silicone tubing (Pseudomonas spp. CTO7; [26]): 18 cfu/mL; Pseudomonas bacterial cell count on coated silicone tubing (Pseudomonas spp. CTO7; [27]): 4 cfu/mL; Pseudomonas bacterial cell count on coated silicone tubing (Pseudomonas spp. CTO7; [28]): 0 cfu/mL; Pseudomonas bacterial cell count on coated silicone tubing (Pseudomonas spp. CTO7; [29]): 0 cfu/mL; Pseudomonas bacterial cell count on coated silicone tubing (Pseudomonas spp. CTO7; [30]): 0 cfu/mL; Pseudomonas bacterial cell count on coated silicone tubing (Pseudomonas spp. CTO7; [31]): 27 cfu/mL; Pseudomonas bacterial cell count on coated silicone tubing (Pseudomonas spp. CTO7; [32]): 1 cfu/mL; Pseudomonas bacterial cell count on coated silicone tubing (Pseudomonas spp. CTO7; [33]): 0 cfu/mL; Pseudomonas bacterial cell count on coated silicone tubing (Pseudomonas spp. CTO7; [34]): 0 cfu/mL; Pseudomonas bacterial cell count on coated silicone tubing (Pseudomonas spp. CTO7; [35]): 0 cfu/mL |
